# Measured values as given in ChEMBL document CHEMBL5380860, “Design, Synthesis, and Antitumor Activity of Potent and Selective EGFR L858R/T790M Inhibitors and Identification of a Combination Therapy to Overcome Acquired Resistance in Models of Non-small-cell Lung Cancer” (J Med Chem, 2023).
# Active and inactive are the calls of the source. The rule behind the calls is not given here.
# Experiments:
# [1] = tested on: A-431; assay: Induction of apoptosis in human A-431 cells assessed as induction of caspase-3 cleavage at 0.1 to 10 uM pretreated with compound for 4 hrs followed by incubation with EGF for 10 mins by western blot analysis; assay type: toxicity, cell-based; conditions: a-431, 4.167 h, dose 0.1-10 µM, time 250 min
# [2] = tested on: NCI-H1975; assay: Antiproliferative activity against human NCI-H1975 cells harboring EGFR L858R/T790M mutant assessed as reduction in cell viability measured after 72 hrs by MTT assay; assay type: functional, cell-based; conditions: NCI-H1975, 72 h
# [3] = tested on: NCI-H1975; assay: Inhibition of cell migration in human NCI-H1975 cells incubated for 48 hrs by scratch wound healing assay; assay type: functional, cell-based; conditions: dose 0.1-10 µM
# [4] = tested on: Mus musculus; assay: In vivo inhibition of EGFR L858R/T790M mutant in N-(3-((6-Fluoro-2-((4-(4-methylpiperazin-1-yl)phenyl)amino)quinazolin-4-yl)amino)phenyl)acrylamide-resistant human NCI-H1975 cells xenografted BALB/c mouse assessed as inhibition of AKT phosphorylation at Ser473 residue in tumor at 20 mg/kg/day, ip in presence of ACK1 inhibitor, dasatinib by immunoblot analysis; assay type: functional, organism-based
# [5] = tested on: NCI-H1975; assay: Inhibition of clonogenicity in human NCI-H1975 cells assessed as inhibition of colony formation incubated for 14 days by crystal violet staining based analysis; assay type: functional, cell-based; conditions: dose 0.1-10 µM, time 14.0 day
# [6] = tested on: Epidermal growth factor receptor (Homo sapiens), P00533 [T790M]; assay: Inhibition of human partial length EGFR (R669 to G1022 residues) T790M mutant expressed in mammalian expression system assessed as residual activity at 1 uM by KINOMEscan analysis
# [7] = tested on: A-431; assay: Induction of apoptosis in human A-431 cells assessed as increase in caspase-3/7 activity at 0.1 to 10 uM incubated for 24 hrs by Caspase-Glo reagent based luminescence analysis; assay type: toxicity, cell-based; conditions: a-431, 24 h, dose 0.1-10 µM
# [8] = tested on: Epidermal growth factor receptor (Homo sapiens), P00533 [L858R,T790M]; assay: Inhibition of EGFR L858R/T790M mutant in N-(3-((6-Fluoro-2-((4-(4-methylpiperazin-1-yl)phenyl)amino)quinazolin-4-yl)amino)phenyl)acrylamide-resistant human NCI-H1975 cells assessed as inhibition of EGF-induced AKT phosphorylation at Ser473 residue pretreated with compound and ACK1 inhibitor, Dasatinib for 4 hrs followed by incubation with EGF for 10 mins by western blot analysis; assay type: cell-based; conditions: time 250.0 min
# [9] = tested on: NCI-H1975; assay: Antitumor activity against human NCI-H1975 cells xenografted in BALB/c mouse assessed as inhibition of tumor burden at 20 mg/kg/day, ip; assay type: functional, organism-based
# [10] = tested on: Mus musculus; assay: In vivo inhibition of EGFR L858R/T790M mutant in NCI-H1975 cells xenografted BALB/c mouse assessed as inhibition of AKT phosphorylation at Ser473 residue in tumor at 20 mg/kg/day, ip by immunoblot analysis; assay type: functional, organism-based
# [11] = tested on: A549; assay: Inhibition of cell migration in human A549 cells at 10 uM incubated for 48 hrs by scratch wound healing assay; assay type: toxicity, cell-based; conditions: a549, 48 h
# [12] = Toxicity in BALB/c mouse xenografted with human NCI-H1975 cells assessed as change in liver morphological changes at 5 to 20 mg/kg/day, ip by hematoxylin-eosin staining based analysis; assay type: organism-based; conditions: in vivo, dose 5-20 mg/kg/day
# [13] = target: Epidermal growth factor receptor (Homo sapiens, UniProt P00533, L858R); assay: Inhibition of human partial length EGFR (R669 to V1011 residues) L858R mutant expressed in bacterial expression system by KINOMEscan analysis
# [14] = target: T1, Epidermal growth factor receptor (Homo sapiens, UniProt P00533); assay: Inhibition of wild type EGFR in human A549 cells assessed as inhibition of EGF-induced Akt phosphorylation at Ser473 residue at 10 uM pretreated with compound for 4 hrs followed by incubation with EGF for 10 mins by western blot analysis; assay type: toxicity, cell-based; conditions: a549, 4.167 h, time 250 min
# [15] = target: Epidermal growth factor receptor (Homo sapiens, UniProt P00533, T790M); assay: Inhibition of human partial length EGFR (R669 to G1022 residues) T790M mutant expressed in mammalian expression system by KINOMEscan analysis
# [16] = target: STE20-like serine/threonine-protein kinase (Homo sapiens, UniProt Q9H2G2); assay: Inhibition of human wild type partial length SLK (S14 to A307 residues) expressed in bacterial expression system by KINOMEscan analysis
# Sequence of STE20-like serine/threonine-protein kinase (Q9H2G2 whole entry, the tested form may be a part): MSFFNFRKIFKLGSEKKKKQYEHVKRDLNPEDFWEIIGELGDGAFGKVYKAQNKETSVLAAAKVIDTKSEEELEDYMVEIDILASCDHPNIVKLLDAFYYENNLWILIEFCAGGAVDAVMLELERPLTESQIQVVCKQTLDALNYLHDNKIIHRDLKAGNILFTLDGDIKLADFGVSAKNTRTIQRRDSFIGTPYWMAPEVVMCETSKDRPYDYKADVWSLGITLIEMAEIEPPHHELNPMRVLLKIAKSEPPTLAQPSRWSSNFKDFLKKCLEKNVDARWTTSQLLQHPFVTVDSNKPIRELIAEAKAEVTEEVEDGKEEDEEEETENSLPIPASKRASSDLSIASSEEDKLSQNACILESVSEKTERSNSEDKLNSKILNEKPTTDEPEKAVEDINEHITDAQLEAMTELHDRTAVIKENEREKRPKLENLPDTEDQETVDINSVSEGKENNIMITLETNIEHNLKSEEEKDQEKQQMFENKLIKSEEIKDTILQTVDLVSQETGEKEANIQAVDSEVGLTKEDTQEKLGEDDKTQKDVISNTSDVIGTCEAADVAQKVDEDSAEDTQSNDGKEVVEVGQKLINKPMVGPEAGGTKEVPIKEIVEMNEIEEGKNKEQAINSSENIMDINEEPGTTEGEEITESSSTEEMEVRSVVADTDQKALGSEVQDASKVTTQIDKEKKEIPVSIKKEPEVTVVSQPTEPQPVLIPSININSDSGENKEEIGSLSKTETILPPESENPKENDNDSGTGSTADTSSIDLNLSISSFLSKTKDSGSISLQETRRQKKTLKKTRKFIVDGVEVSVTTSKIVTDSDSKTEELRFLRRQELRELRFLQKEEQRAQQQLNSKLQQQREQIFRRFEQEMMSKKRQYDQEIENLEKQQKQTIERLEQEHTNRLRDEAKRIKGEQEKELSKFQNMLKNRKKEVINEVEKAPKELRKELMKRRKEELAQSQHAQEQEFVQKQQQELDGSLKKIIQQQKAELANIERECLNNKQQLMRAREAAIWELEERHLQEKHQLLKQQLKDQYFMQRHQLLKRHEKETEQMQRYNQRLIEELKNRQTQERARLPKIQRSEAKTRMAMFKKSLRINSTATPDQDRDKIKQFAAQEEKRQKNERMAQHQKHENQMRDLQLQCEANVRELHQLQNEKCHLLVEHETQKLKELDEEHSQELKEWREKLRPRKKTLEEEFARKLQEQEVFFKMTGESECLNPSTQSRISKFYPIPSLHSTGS
# [17] = target: T1, Epidermal growth factor receptor; assay: Inhibition of wild type EGFR in human A549 cells assessed as inhibition of EGF-induced EGFR phosphorylation at Tyr1068 residue at 10 uM pretreated with compound for 4 hrs followed by incubation with EGF for 10 mins by western blot analysis; assay type: toxicity, cell-based; conditions: a549, 4.167 h, time 250 min
# [18] = Toxicity in BALB/c mouse xenografted with N-(3-((6-Fluoro-2-((4-(4-methylpiperazin-1-yl)phenyl)amino)quinazolin-4-yl)amino)phenyl)acrylamide-resistant human NCI-H1975 cells assessed as changes in lung morphological changes at 20 mg/kg/day, ip in presence of ACK1 inhibitor, dasatinib by hematoxylin-eosin staining based analysis; assay type: organism-based; conditions: in vivo
# [19] = tested on: NCI-H1975; assay: Antitumor activity against N-(3-((6-Fluoro-2-((4-(4-methylpiperazin-1-yl)phenyl)amino)quinazolin-4-yl)amino)phenyl)acrylamide-resistant human NCI-H1975 cells xenografted in BALB/c mouse assessed as inhibition of tumor growth at 20 mg/kg/day, ip; assay type: functional, organism-based
# [20] = Toxicity in BALB/c mouse xenografted with human NCI-H1975 cells assessed as change in kidney morphological changes at 5 to 20 mg/kg/day, ip by hematoxylin-eosin staining based analysis; assay type: organism-based; conditions: in vivo, dose 5-20 mg/kg/day
# [21] = tested on: NCI-H1975; assay: Inhibition of cell migration in human NCI-H1975 cells at 0.1 uM incubated for 48 hrs by scratch wound healing assay; assay type: functional, cell-based
# [22] = tested on: NCI-H1975; assay: Antitumor activity against human NCI-H1975 cells xenografted in BALB/c mouse assessed as tumor regression at 5 to 10 mg/kg/day, ip; assay type: functional, organism-based; conditions: dose 5-10 mg/kg/day
# [23] = tested on: Epidermal growth factor receptor (Homo sapiens), P00533 [L858R,T790M]; assay: Covalent binding affinity to EGFR L858R/T790M mutant (unknown origin) assessed as covalent adduct formation at Cys797 residue at protein to compound concentration ratio of 1:4 incubated for 1 hr and measured following enzymatic hydrolysis by LC-MS analysis
# [24] = tested on: NCI-H1975; assay: Antitumor activity against N-(3-((6-Fluoro-2-((4-(4-methylpiperazin-1-yl)phenyl)amino)quinazolin-4-yl)amino)phenyl)acrylamide-resistant human NCI-H1975 cells xenografted in BALB/c mouse assessed as inhibition of tumor weight at 20 mg/kg/day, ip in presence of ACK1 inhibitor, dasatinib; assay type: functional, organism-based
structure (smiles),measurement,setting,value
C=CC(=O)Nc1cccc(Nc2nc(Nc3ccc(N4CCN(C)CC4)cc3)nc3ccc(F)cc23)c1,Activity,[1],Non-Toxic
same,IC50,[2],19 nM
same,inhibition,[3],Dose-Dependent Effect
same,inhibition,[4],Active
same,inhibition,[5],Dose-Dependent Effect
same,Activity,[6],3%
same,Activity,[7],Non-Toxic
same,inhibition,[8],Active
same,Activity,[9],Active
same,inhibition,[10],Active
same,Activity,[11],Non-Toxic
same,Activity,[12],Non-Toxic
same,IC50,[13],2.1 nM
same,inhibition (INH),[14],Not Active
same,IC50,[15],6.7 nM
same,IC50,[16],892 nM
same,inhibition (INH),[17],Not Active
same,Activity,[18],Non-Toxic
same,Activity,[19],inactive
same,Activity,[20],Non-Toxic
same,inhibition,[21],Active
same,Activity,[22],Active
same,Activity,[23],Active
same,Activity,[24],Active
